Measured values published in PubChem BioAssay AID1259407 (Chemical Carcinogenesis Research Information System (CCRIS), 2018).
Active and inactive are the calls of the source. How the calls were made is not given here.

System: CCRIS mutagenicity, Ames/micronucleus/aberration tests
Test: CCRIS mutagenicity studies
[1] = Test System: AMES SALMONELLA TYPHIMURIUM, Strain/Indicator: TA98, Metabolic Activation: NONE, Method: STANDARD PLATE
[2] = Test System: AMES SALMONELLA TYPHIMURIUM, Strain/Indicator: TA98, Metabolic Activation: RAT, LIVER, S-9, AROCLOR 1254, Method: STANDARD PLATE
[3] = Test System: AMES SALMONELLA TYPHIMURIUM, Strain/Indicator: TA100, Metabolic Activation: NONE, Method: PREINCUBATION
[4] = Test System: AMES SALMONELLA TYPHIMURIUM, Strain/Indicator: TA100, Metabolic Activation: RAT, LIVER, S-9, AROCLOR 1254, Method: STANDARD PLATE

C(=N\NC1=NCCN1)/c1c2ccccc2c(/C=N/NC2=NCCN2)c2ccccc12
mutagenic call (Test System: AMES SALMONELLA TYPHIMURIUM, Strain/Indicator: TA97A, Metabolic Activation: NONE, Method: STANDARD PLATE): active; positive
mutagenic call [1]: active; positive
mutagenic call (Test System: AMES SALMONELLA TYPHIMURIUM, Strain/Indicator: TA1538, Metabolic Activation: NONE, Method: STANDARD PLATE): active; positive

CC(=O)Nc1ccc2c(c1OC(C)=O)Cc1ccccc1-2
mutagenic call [2]: inactive; negative

CC1=C[C@]2(O[C@@H]3O[C@H](CO)[C@@H](O)[C@H](O)[C@H]3O)C[C@@H](C)C(=O)[C@@H]2[C@](C)(O)C12CC2
mutagenic call (Test System: AMES SALMONELLA TYPHIMURIUM, Strain/Indicator: TA98, Metabolic Activation: NONE, Method: PREINCUBATION): active; positive
mutagenic call (Test System: AMES SALMONELLA TYPHIMURIUM, Strain/Indicator: TA98, Metabolic Activation: NONE, Method: PREINCUBATION (PH 7.4)): inactive; negative
mutagenic call (Test System: AMES SALMONELLA TYPHIMURIUM, Strain/Indicator: TA98, Metabolic Activation: NONE, Method: PREINCUBATION (PH 8.5)): active; positive
mutagenic call (Test System: AMES SALMONELLA TYPHIMURIUM, Strain/Indicator: TA98, Metabolic Activation: S-9, Method: PREINCUBATION (PH 7.4)): inactive; negative
mutagenic call [3]: active; positive
mutagenic call (Test System: AMES SALMONELLA TYPHIMURIUM, Strain/Indicator: TA100, Metabolic Activation: NONE, Method: PREINCUBATION (PH 7.4)): inactive; negative
mutagenic call (Test System: AMES SALMONELLA TYPHIMURIUM, Strain/Indicator: TA100, Metabolic Activation: NONE, Method: PREINCUBATION (PH 8.5)): active; positive
mutagenic call (Test System: AMES SALMONELLA TYPHIMURIUM, Strain/Indicator: TA100, Metabolic Activation: S-9, Method: PREINCUBATION (PH 7.4)): inactive; negative
mutagenic call (Test System: UDS RAT HEPATOCYTES, Strain/Indicator: THY INCORP, Metabolic Activation: NONE, Method: AUTORADIOGRAPHY): active; positive

Cc1ccc2c([N+](=O)[O-])cc[n+]([O-])c2c1
mutagenic call (Test System: UDS RODENT PRIMARY CELLS, Strain/Indicator: THY INCORP (NON-S-PHASE), Metabolic Activation: NONE, Method: AUTORADIOGRAPHY): active; positive

COc1cc(-c2ccc(N/N=C3\C(=O)c4ccc(N)cc4C=C3S(=O)(=O)O)c(OC)c2)ccc1N/N=C1/C=C(S(=O)(=O)O)c2ccccc2C1=O
mutagenic call (Test System: AMES SALMONELLA TYPHIMURIUM, Strain/Indicator: TA98, Metabolic Activation: HAMSTER, LIVER, S-9, Method: PREINCUBATION (PRIVAL METHOD)): active; positive

C=C(C)C1CC=C(CO)CC1 (stereo not given)
mutagenic call (Test System: Mouse lymphoma, Strain/Indicator: L5178Y (tk+/tk-), Metabolic Activation: None, Method: Suspension/plate): inactive; negative
mutagenic call (Test System: Mouse lymphoma, Strain/Indicator: L5178Y (tk+/tk-), Metabolic Activation: Rat, Liver, S-9, Aroclor 1254, Method: Suspension/plate): inactive; positive. retest at same dose: negative

CC(O)CC(=O)Nc1ccc(O)cc1 (stereo not given)
mutagenic call (Test System: AMES SALMONELLA TYPHIMURIUM, Strain/Indicator: TA100, Metabolic Activation: HAMSTER, LIVER, S-9, KANECHLOR 400, Method: PREINCUBATION): inactive; negative
mutagenic call [3]: inactive; negative

Nc1cc2c3c(cccc3c1)-c1ccccc1-2
mutagenic call (Test System: AMES SALMONELLA TYPHIMURIUM, Strain/Indicator: TA98, Metabolic Activation: RAT, LIVER, S-9, AROCLOR 1254 (2 OR 4%), Method: STANDARD PLATE): active; positive
mutagenic call (Test System: AMES SALMONELLA TYPHIMURIUM, Strain/Indicator: TA100, Metabolic Activation: RAT, LIVER, S-9, AROCLOR 1254 (4%), Method: STANDARD PLATE): active; positive
mutagenic call (Test System: AMES SALMONELLA TYPHIMURIUM, Strain/Indicator: TA1535, Metabolic Activation: RAT, LIVER, S-9, AROCLOR 1254 (4%), Method: STANDARD PLATE): active; positive
mutagenic call (Test System: AMES SALMONELLA TYPHIMURIUM, Strain/Indicator: TA1537, Metabolic Activation: RAT, LIVER, S-9, AROCLOR 1254 (4%), Method: STANDARD PLATE): active; positive

COC(=O)C(N)Cc1ccc(Cl)cc1 (stereo not given)
mutagenic call (Test System: AMES SALMONELLA TYPHIMURIUM, Strain/Indicator: TA98, Metabolic Activation: NONE): inactive; negative
mutagenic call (Test System: AMES SALMONELLA TYPHIMURIUM, Strain/Indicator: TA100, Metabolic Activation: NONE): inactive; negative
mutagenic call (Test System: AMES SALMONELLA TYPHIMURIUM, Strain/Indicator: TA1535, Metabolic Activation: NONE): inactive; negative
mutagenic call (Test System: AMES SALMONELLA TYPHIMURIUM, Strain/Indicator: TA1537, Metabolic Activation: NONE): inactive; negative
mutagenic call (Test System: E. COLI, Strain/Indicator: AB2462 UVRA, Metabolic Activation: NONE, Method: SPOT TEST): inactive; negative
mutagenic call (Test System: E. COLI, Strain/Indicator: WP6 POLA, Metabolic Activation: NONE, Method: SPOT TEST): inactive; negative

CC(O)CO (stereo not given) (tested in a mixture with another compound)
mutagenic call (Test System: AMES SALMONELLA TYPHIMURIUM, Strain/Indicator: TA102, Metabolic Activation: RAT, LIVER, S-9, PHENOBARBITAL AND 5,6-BENZOFLAVONE, Method: STANDARD PLATE): inactive; negative
mutagenic call (Test System: AMES SALMONELLA TYPHIMURIUM, Strain/Indicator: TA2638, Metabolic Activation: RAT, LIVER, S-9, PHENOBARBITAL AND 5,6-BENZOFLAVONE, Method: STANDARD PLATE): inactive; negative
mutagenic call (Test System: E. COLI, Strain/Indicator: WP2 (PKM101), Metabolic Activation: RAT, LIVER, S-9, PHENOBARBITAL AND 5,6-BENZOFLAVONE, Method: STANDARD PLATE): active; positive
mutagenic call (Test System: E. COLI, Strain/Indicator: WP2 UVRA (PKM101), Metabolic Activation: RAT, LIVER, S-9, PHENOBARBITAL AND 5,6-BENZOFLAVONE, Method: STANDARD PLATE): active; positive

O=c1[nH]c2c(c(=O)n1C1CCCCC1)CCC2
mutagenic call (Test System: AMES SALMONELLA TYPHIMURIUM, Strain/Indicator: TA97, Metabolic Activation: RAT, LIVER, S-9, AROCLOR 1254, Method: STANDARD PLATE): inactive; negative
mutagenic call (Test System: AMES SALMONELLA TYPHIMURIUM, Strain/Indicator: TA97, Metabolic Activation: RAT, LIVER, S-9, AROCLOR 1254 AND NADPH, Method: STANDARD PLATE): inactive; negative
mutagenic call [2]: inactive; negative
mutagenic call (Test System: AMES SALMONELLA TYPHIMURIUM, Strain/Indicator: TA98, Metabolic Activation: RAT, LIVER, S-9, AROCLOR 1254 AND NADPH, Method: STANDARD PLATE): inactive; negative
mutagenic call [4]: inactive; negative
mutagenic call (Test System: AMES SALMONELLA TYPHIMURIUM, Strain/Indicator: TA100, Metabolic Activation: RAT, LIVER, S-9, AROCLOR 1254 AND NADPH, Method: STANDARD PLATE): inactive; negative
mutagenic call (Test System: AMES SALMONELLA TYPHIMURIUM, Strain/Indicator: TA102, Metabolic Activation: RAT, LIVER, S-9, AROCLOR 1254, Method: STANDARD PLATE): inactive; negative
mutagenic call (Test System: AMES SALMONELLA TYPHIMURIUM, Strain/Indicator: TA102, Metabolic Activation: RAT, LIVER, S-9, AROCLOR 1254 AND NADPH, Method: STANDARD PLATE): inactive; negative

O=[N+]([O-])c1c2c(c3ccc4cccc5ccc1c3c45)C=CCC2
mutagenic call [1]: inactive; negative
mutagenic call [2]: inactive; negative
mutagenic call (Test System: AMES SALMONELLA TYPHIMURIUM, Strain/Indicator: TA100, Metabolic Activation: NONE, Method: STANDARD PLATE): inactive; negative
mutagenic call [4]: inactive; negative
